Measurements as given in patent US4214091A, “Antibiotic No. 2-200 and process for producing thereof” (Chugai Seiyaku Kabushiki Kaisha, priority 1977, dated 1980).
In brackets after ≈: the same amount, converted by molar mass. Like-named read-outs stand apart in the source and are kept apart here.

Experiments:
[1] = test system: Bacteroides fragilis V-6; assay: MIC, GAM agar, anaerobic; format: cell-based; conditions: V6, 40 h, read-out: Minimum inhibitory concentration (MIC)
Protocol: (§1) Minimum inhibitory concentration (MIC) for gram
(§2) Note: incubated at 37° C. for 40 hours on GAM agar medium (product
(§3) of Nippon Seiyaku) using anaerobic incubator. Inoculated with 10^6

[2] = test system: Bacteroides fragilis V-7; assay: MIC, GAM agar, anaerobic; format: cell-based; conditions: V7, 40 h, read-out: Minimum inhibitory concentration (MIC)
Protocol: as §1, §2, §3

[3] = test system: Bacteroides fragilis V-8; assay: MIC, GAM agar, anaerobic; format: cell-based; conditions: V8, 40 h, read-out: Minimum inhibitory concentration (MIC)
Protocol: as §1, §2, §3

[4] = test system: Fusobacterium glutinosum 1006; assay: MIC, GAM agar, anaerobic; format: cell-based; conditions: 37° C., 40 hours, inoculum 10^6/ML, read-out: Minimum inhibitory concentration (MIC)
Protocol: as §1, §2, §3

[5] = test system: Fusobacterium necroforum S-45; assay: MIC, GAM agar, anaerobic; format: cell-based; conditions: S45, 37° C., 40 hours, inoculum 10^6/ML, read-out: Minimum inhibitory concentration (MIC)
Protocol: as §1, §2, §3

[6] = test system: Klebsiella pneumoniae 15c; assay: MIC by agar plate dilution method; format: cell-based; conditions: 24 h, read-out: Minimum inhibitory concentration
Protocol: (§4) The test organisms were incubated by agar plate dilution method at 37° C. for 24 hours, after which their growth was observed. The test organisms were incubated on an NB medium (product of Eiken Kagaku) at 37° C. overnight, and each culture obtained was diluted 10^3 - to 10^4 -fold and stamped on an agar plate. The following agar plate media were used:
(§5) NA: nutrient agar (product of Eiken Kagaku)
(§6) NA+G6P: glucose-6-phosphoric acid (50 μg/ml) plus nutrient agar
(§7) Anti-3A: antibiotic medium No. 3 agar (product of Difco)
(§8) MHA: Mueller Hinton Agar (product of Eiken Kagaku)

[7] = test system: Klebsiella pneumoniae 3K25; assay: MIC by agar plate dilution method; format: cell-based; conditions: 3K25, 24 h, 37° C., read-out: Minimum inhibitory concentration
Protocol: as §4, §5, §6, §7, §8

[8] = acute toxicity, single administration; conditions: mouse, in vivo, pH 7, read-out: median lethal dose (LD50)
Protocol: (§9) The crystal of the antibiotic No. 2-200 obtained in Example 4 was floated in sterile distilled water, mixed with 5% caustic soda to adjust the pH to 7.0, and dissolved to make a solution. The solution was adminstered to 5-week-old ddY male mice to examine its actuate toxicity as well as delayed toxicity. During 10 days that followed the administration, the weight of each mouse, its food intake and water intake were measured.

[9] = test system: 5-week-old ddY male mice; conditions: mouse, in vivo
Protocol: as §9

[10] = Solubility in solvents; format: physicochemical
[11] = test system: gram negative bacteria; assay: antibacterial activity (general statement); format: cell-based
[12] = test system: bacteria of genus Salmonella; assay: antibacterial activity (general statement); format: cell-based
[13] = test system: bacteria of genus Serratia; assay: antibacterial activity (general statement); format: cell-based
[14] = test system: mutant of Pseudomonus aeroginosa, for example, G-75, M-57740; assay: growth inhibition of β-lactam-sensitive mutant; format: cell-based; conditions: mutant sensitive to a β-lactam antibiotic
Text: The present inventors further continued their studies and succeeded in isolating from a culture of actinomycete an effective substance as a crystal, which was subjected to X-ray diffractometry to determine its structure. […] This invention is a development of studies based on these findings.

[15] = test system: mammals; conditions: in vivo

SMILES: C=CC(C)=CC1(C)SC(=O)C(C)=C1O (single isomer, unassigned) [No. 2-200]
- MIC [1]: 3.12 µg/mL (≈ 14.8 µM)
- MIC [2]: 12.5 µg/mL (≈ 59.4 µM)
- MIC [3]: 6.25 µg/mL (≈ 29.7 µM)
- MIC [4]: 100 µg/mL (≈ 476 µM)
- MIC [5]: 3.12 µg/mL (≈ 14.8 µM)
- MIC ([6]; Anti-3A, 37° C., 24 hours): 50 µg/mL (≈ 238 µM)
- MIC ([6]; NA + G6P (50 μg/ml), 37° C., 24 hours): 100 µg/mL
- MIC ([6]; NA, 37° C., 24 hours): 100 µg/mL (≈ 476 µM)
- MIC [6]: 12.5 µg/mL (≈ 59.4 µM)
- MIC ([7]; Anti-3A): 50 µg/mL (≈ 238 µM)
- MIC ([7]; MHA): 50 µg/mL (≈ 238 µM)
- MIC ([7]; NA + G6P (50 μg/ml)): 100 µg/mL
- MIC ([7]; NA): 200 µg/mL (≈ 951 µM)
- LD50 at 240 h ([8]; ip): 810 mg/kg
- LD50 at 240 h ([8]; iv): 705 mg/kg
- delayed toxicity [9]: entirely free from delayed toxicity
- solubility ([10]; acetone): easily soluble
- solubility ([10]; alkaline water): easily soluble
- solubility ([10]; ethyl acetate): easily soluble
- solubility ([10]; methanol): easily soluble
- solubility ([10]; neutral to acidic water): slightly soluble
- antibacterial activity to gram negative bacteria [11]: exhibits antibacterial activity
- antibacterial activity to bacteria of genus Salmonella [12]: particularly strong antibacterial activity
- antibacterial activity to bacteria of genus Serratia [13]: particularly strong antibacterial activity
- inhibition of growth [14]: strongly inhibits the growth
- delayed toxicity (general statement) [15]: no delayed toxicity
